Laboratory results taken from ChEMBL document CHEMBL5346906, “Discovery of novel tranylcypromine-based derivatives as LSD1 inhibitors for gastric cancer treatment” (Eur J Med Chem, 2023).

Tested on: MGC-803
Assay: Induction of mitochondrial membrane potential depolarization in human MGC-803 assessed as necrotic cells measured at 8 micromol/L for 20 mins by JC-1 staining based flow cytometric analysis (reference value: 0.00%)
Type: functional
Conditions: dose 8 µmol/L, at 8 µM

O=C(c1cccc(CN[C@@H]2C[C@H]2c2ccc(F)c(F)c2)c1)N1CCN(c2ccc(Cl)c(Cl)c2)CC1
Activity: 0%
